Literature values in patent publication US7579326B2, “Gene switch systems employing regulators with decreased dimerization” (Genetronics, Inc., priority 2000, dated 2009).

Experiments:
[1] = target: palindromic 17-mer GAL-4 DNA binding site
[2] = rats

| Kd [1] [nM] | half-life [2] [h] | Compound |
| --- | --- | --- |
| 3 | – | GAL-4, residues 1-100: yeast GAL-4 DNA binding domain fragment, residues 1-100 |
| – | 1 | CC#C[C@]1(O)CC[C@H]2[C@@H]3CCC4=CC(=O)CCC4=C3[C@@H](c3ccc(N(C)C)cc3)C[C@@]21C [MFP, 11β-(4-dimethylaminophenyl)-17β-hydroxy-17α-propynyl-4,9-estradiene-3-one] |
